Reference: ChEMBL document CHEMBL1148070, “Cytotoxic saponins from New Zealand Myrsine species” (1994)
In brackets after ≈: the same amount, converted by molar mass. Activity calls are given as the source filed them. No cut-off for these calls is given here.

How the values were obtained:
[1] = system: Poliovirus 1; assay: Antiviral activity against Human poliovirus 1 assessed as inhibition of virus-induced cytopathic effect 40 ug/disk; type: functional, organism-based
[2] = system: Human alphaherpesvirus 1; assay: Antiviral activity against HSV1 assessed as inhibition of virus-induced cytopathic effect 40 ug/disk; type: functional, organism-based
[3] = system: P388; assay: Cytotoxicity against mouse P388 cells; type: functional; conditions: read-out: ID50 (the source's name)

| SMILES | inhibition [1] | inhibition [2] | IC50 [3] [µg/mL] |
| --- | --- | --- | --- |
| CC1(C)[C@@H](O[C@@H]2OC[C@H](O[C@@H]3O[C@H](CO)[C@@H](O)[C@H](O)[C@H]3O[C@@H]3OC[C@@H](O)[C@H](O)[C@H]3O)[C@H](O)[C@H]2O[C@@H]2O[C@H](CO)[C@@H](O)[C@H](O)[C@H]2O)CC[C@]2(C)[C@H]3CC[C@]45OC[C@@]6(CC[C@](C)(C=O)C[C@H]64)[C@H](O)C[C@@]5(C)[C@]3(C)CC[C@@H]12 [ARDISIACRISPIN A] | Active | Active | 7 (≈ 6.6 µM) |
| C[C@@H]1O[C@@H](O[C@H]2[C@H](O[C@H]3CO[C@@H](O[C@H]4CC[C@]5(C)[C@H]6CC[C@]78OC[C@@]9(CCC(C)(C)C[C@H]97)[C@H](O)C[C@@]8(C)[C@]6(C)CC[C@H]5C4(C)C)[C@H](O[C@@H]4O[C@H](CO)[C@@H](O)[C@H](O)[C@H]4O)[C@H]3O)O[C@H](CO)[C@@H](O)[C@@H]2O)[C@H](O)[C@H](O)[C@H]1O | Active | Active | 0.85 (≈ 0.801 µM) |
| C[C@@H]1O[C@@H](O[C@H]2[C@H](O[C@H]3CO[C@@H](O[C@H]4CC[C@]5(C)[C@H]6CC[C@]78OC[C@@]9(CC[C@](C)(C=O)C[C@H]97)[C@H](O)C[C@@]8(C)[C@]6(C)CC[C@H]5C4(C)C)[C@H](O[C@@H]4O[C@H](CO)[C@@H](O)[C@H](O)[C@H]4O)[C@H]3O)O[C@H](CO)[C@@H](O)[C@@H]2O)[C@H](O)[C@H](O)[C@H]1O [ARDISIACRISPIN B] | Active | Active | 8.6 (≈ 8 µM) |
| C[C@@H]1O[C@@H](O[C@H]2[C@H](O[C@H]3CO[C@@H](O[C@H]4CC[C@]5(C)[C@H]6CC[C@]78OC(O)[C@@]9(CCC(C)(C)C[C@H]97)[C@H](O)C[C@@]8(C)[C@]6(C)CC[C@H]5C4(C)C)[C@H](O[C@@H]4O[C@H](CO)[C@@H](O)[C@H](O)[C@H]4O)[C@H]3O)O[C@H](CO)[C@@H](O)[C@@H]2O)[C@H](O)[C@H](O)[C@H]1O (some centres undefined) | Active | Active | > 12.5 |
| C[C@@H]1O[C@@H](O[C@H]2[C@H](O[C@H]3CO[C@@H](O[C@H]4CC[C@]5(C)[C@H]6CC[C@]78OC(=O)[C@@]9(CCC(C)(C)C[C@H]97)[C@H](O)C[C@@]8(C)[C@]6(C)CC[C@H]5C4(C)C)[C@H](O[C@@H]4O[C@H](CO)[C@@H](O)[C@H](O)[C@H]4O)[C@H]3O)O[C@H](CO)[C@@H](O)[C@@H]2O)[C@H](O)[C@H](O)[C@H]1O | Active | Active | 10.2 (≈ 9.49 µM) |
| CC1(C)CC[C@]23CO[C@@]4(CC[C@@H]5[C@@]6(C)CC[C@H](O[C@@H]7OC[C@H](O[C@@H]8O[C@H](CO)[C@@H](O)[C@H](O)[C@H]8O[C@@H]8OC[C@@H](O)[C@H](O)[C@H]8O)[C@H](O)[C@H]7O[C@@H]7O[C@H](CO)[C@@H](O)[C@H](O)[C@H]7O)C(C)(C)[C@@H]6CC[C@@]5(C)[C@]4(C)C[C@H]2O)[C@@H]3C1 [LYSIKOKIANOSIDE 1] | Active | Active | 0.85 (≈ 0.812 µM) |
| CC1(C)CC[C@]23C(O)O[C@@]4(CC[C@@H]5[C@@]6(C)CC[C@H](O[C@@H]7OC[C@H](O[C@@H]8O[C@H](CO)[C@@H](O)[C@H](O)[C@H]8O[C@@H]8OC[C@@H](O)[C@H](O)[C@H]8O)[C@H](O)[C@H]7O[C@@H]7O[C@H](CO)[C@@H](O)[C@H](O)[C@H]7O)C(C)(C)[C@@H]6CC[C@@]5(C)[C@]4(C)C[C@H]2O)[C@@H]3C1 (some centres undefined) | Active | Active | 7 (≈ 6.58 µM) |
| CC1(C)CC[C@]23C(=O)O[C@@]4(CC[C@@H]5[C@@]6(C)CC[C@H](O[C@@H]7OC[C@H](O[C@@H]8O[C@H](CO)[C@@H](O)[C@H](O)[C@H]8O[C@@H]8OC[C@@H](O)[C@H](O)[C@H]8O)[C@H](O)[C@H]7O[C@@H]7O[C@H](CO)[C@@H](O)[C@H](O)[C@H]7O)C(C)(C)[C@@H]6CC[C@@]5(C)[C@]4(C)C[C@H]2O)[C@@H]3C1 | Active | Active | > 12.5 |
